# Laboratory results as given in patent US20110237679A1, “NOVEL ANTIVIRAL COMPOUNDS, COMPOSITIONS, AND METHODS OF USE” (CYTOKINE PHARMASCIENCES, INC., priority 2008, published 2011).
# Assay: in vitro activity comparison (FIG. 1)
# Format: cell-based
# Conditions: relative to ITI-367
compound,measurement,value
"COc1ccccc1C(=Nc1cccc(C(F)(F)F)c1)NO [CPSI-00220, N-hydroxy-2-methoxy-N′-(3-trifluoromethyl-phenyl)-benzamidine]",effectiveness in vitro compared with ITI-367,equally (and possibly more) as effective as ITI-367
